Test results: patent US11338007B2, “Combination formulation of three antiviral compounds” (priority 2016, dated 2022)

Legend:
[1] = Solid-state compatibility of sofosbuvir/velpatasvir SSD/voxilaprevir SSD granules (Table 7); format: physicochemical; settings: for LS / Total Imp./Deg. Products: granules Lot F
Method: Sofosbuvir, velpatasvir SSD, and voxilaprevir SSD are chemically and physically compatible in the solid-state. The solid-state compatibility of sofosbuvir, velpatasvir SSD, and voxilaprevir SSD was evaluated by preparing a powder blend composed of 49.75% w/w sofosbuvir, 24.88% w/w of velpatasvir SSD, and 24.88% w/w of voxilaprevir SSD, and 0.25% w/w magnesium stearate (added as a lubricant). The powder blend was dry granulated using a roller compactor and then milled. The resulting granules (Lot F) contained 400 mg of sofosbuvir, 100 mg velpatasvir (as 200 mg velpatasvir SSD), and 100 mg voxilaprevir (as 200 mg voxilaprevir SSD) equivalent to the relative compositions in the sofosbuvir/velpatasvir/voxilaprevir tablet: 400/100/100 mg.
The chemical and physical stability of sofosbuvir/velpatasvir SSD/voxilaprevir SSD granules, packaged in glass vials (protected from light), was evaluated for 6 months at 25° C./60% RH and 40° C./75% RH under open and closed conditions. As summarized in Table 7, sofosbuvir, velpatasvir, and voxilaprevir were chemically stable with no increase in total impurities/degradation products of sofosbuvir (remaining at 0.0%), velpatasvir (remaining between 0.4 and 0.5%), and voxilaprevir (remaining between 1.1 and 1.4%) after a 6 month storage period. No upward trend in the content of degradation products was observed over the time period studied.

[2] = Tablet dissolution, 50 mM sodium acetate buffer pH 5.0 with 2.0% w/v Polysorbate 80, USP Type II, 75 rpm; format: physicochemical
Method: FIGS. 10-12 depict additional dissolution profiles for the sofosbuvir/velpatasvir SSD/voxilaprevir SSD tablets having the formulation described in Table 13 and which were used in phase 1, 2, and 3 clinical studies, where the dissolution testing was conducted at pH 5.0 acetate buffer containing 2.0% w/v polysorbate 80. Four batches of the sofosbuvir/velpatasvir SSD/voxilaprevir SSD tablets were tested, with Batch A manufactured at 100 kg and Batches B, C and D manufactured at 145 kg. All other aspects of the formulation and manufacturing process were otherwise equivalent. […] Moreover, for Batch A, the amount dissolved at 30 min remained between 98 and 100% for sofosbuvir, between 90 and 92% for velpatasvir SSD, and between 89 and 93% for voxilaprevir SSD. […] For Batch D, the amount dissolved at 30 min remained at 100% for sofosbuvir, between 90 and 91% for velpatasvir SSD, and between 89 and 91% for voxilaprevir SSD. Release of velpatasvir SSD and voxilaprevir SSD from the sofosbuvir/velpatasvir SSD/voxilaprevir SSD tablets associated with all four Batches was complete after 60 minutes.

[3] = Chemical and physical stability of Formulation G film-coated tablets Lots A and B (Tables 11A, 11B); format: physicochemical
Method: In some embodiments, the film-coated tablets were packaged in 75 and 100 mL white HDPE bottles (Lots A and B, respectively, as described in Tables 11A, 11B) with 1 g silica gel desiccant canisters and a polyester fiber coil. The 75 and 100 mL HDPE bottles contained fourteen and twenty eight tablets, respectively. Each HDPE bottle was capped using a continuous thread, child-resistant polypropylene screw cap with an […], aluminum-faced line. The packaged tablets (14 and 28 counts) were evaluated for stability at 40° C./75% RH and 25° C./60% RH. Additionally, the 14-count bottles (without cap) were evaluated for stability under open conditions at 40° C./75% RH.

[4] = Food effect (high calorie/high-fat meals) on pharmacokinetics in human subjects (Table 28); format: in vivo; settings: tablets 400/100/100 mg; high calorie/high-fat meal
Method: The effect of food (high calorie/high-fat meals) on the pharmacokinetics of sofosbuvir/velpatasvir SSD/voxilaprevir SSD tablets (400/100/100 mg). […] As a result, sofosbuvir/velpatasvir SSD/voxilaprevir SSD tablets are administered with food.

[5] = Tablet dissolution as a function of medium pH and composition (FIGS. 13-15); format: physicochemical; settings: Formulation G tablets; independent of medium pH and composition
[6] = 25° C./60% RH (Closed), 3 months
[7] = 25° C./60% RH (Closed), 6 months
[8] = 40° C./75% RH (Closed), 1 month
[9] = 40° C./75% RH (Closed), 3 months
[10] = 40° C./75% RH (Closed), 6 months

Structure (SMILES): CC(C)OC(=O)C(C)N[P@](=O)(OC[C@H]1O[C@@H](n2ccc(=O)[nH]c2=O)[C@](C)(F)[C@@H]1O)Oc1ccccc1 (stereo in doubt) [sofosbuvir, (S)-isopropyl 2-(((S)-(((2R,3R,4R,5R)-5-(2,4-dioxo-3,4-dihydropyrimidin-1(2H)-yl)-4-fluoro-3-hydroxy-4-methyltetrahydrofuran-2-yl)methoxy)(phenoxy)phosphoryl)amino)propanoate]
- LS [1, 6]: 101.1%
- Total Imp./Deg. Products [1, 6]: 0.0%
- LS [1, 7]: 99.1%
- Total Imp./Deg. Products [1, 7]: 0.0%
- LS [1, 8]: 99.5%
- Total Imp./Deg. Products [1, 8]: 0.0%
- LS [1, 9]: 99.4%
- Total Imp./Deg. Products [1, 9]: 0.0%
- LS [1, 10]: 97.2%
- Total Imp./Deg. Products [1, 10]: 0.0%
- LS ([1]; 40° C./75% RH (Open), 1 month): 101.3%
- Total Imp./Deg. Products ([1]; 40° C./75% RH (Open), 1 month): 0.0%
- LS ([1]; 40° C./75% RH (Open), 3 months): 98.5%
- Total Imp./Deg. Products ([1]; 40° C./75% RH (Open), 3 months): 0.0%
- LS ([1]; 40° C./75% RH (Open), 6 months): 95.6%
- Total Imp./Deg. Products ([1]; 40° C./75% RH (Open), 6 months): 0.0%
- LS ([1]; Initial, 0 months): 103.5%
- Total Imp./Deg. Products ([1]; Initial, 0 months): 0.0%
- total impurities/degradation products ([1]; granules, over 6 month storage at 25° C./60% RH and 40° C./75% RH, open and closed): 0.0%
- Dissolved at 30 min ([2]; Batch A, 25° C./60% RH, 3 months): 98%
- Dissolved at 30 min ([2]; Batch A, 25° C./60% RH, 6 months): 98%
- Dissolved at 30 min ([2]; Batch A, 30° C./75% RH, 3 months): 98%
- Dissolved at 30 min ([2]; Batch A, 30° C./75% RH, 6 months): 100%
- Dissolved at 30 min ([2]; Batch A, 40° C./75% RH, 1 month): 98%
- Dissolved at 30 min ([2]; Batch A, 40° C./75% RH, 3 months): 99%
- Dissolved at 30 min ([2]; Batch A, 40° C./75% RH, 6 months): 100%
- Dissolved at 30 min ([2]; Batch A, Initial): 98%
- Dissolved at 30 min ([2]; Batch B, 25° C./60% RH, 3 months): 99%
- Dissolved at 30 min ([2]; Batch B, 25° C./60% RH, 6 months): 99%
- Dissolved at 30 min ([2]; Batch B, 30° C./75% RH, 3 months): 99%
- Dissolved at 30 min ([2]; Batch B, 30° C./75% RH, 6 months): 99%
- Dissolved at 30 min ([2]; Batch B, 40° C./75% RH, 1 month): 100%
- Dissolved at 30 min ([2]; Batch B, 40° C./75% RH, 3 months): 100%
- Dissolved at 30 min ([2]; Batch B, 40° C./75% RH, 6 months): 98%
- Dissolved at 30 min ([2]; Batch B, Initial): 99%
- amount dissolved at 30 min ([2]; Batch D): 100%
- Dissolved at 30 min ([2]; Batch D, 40° C./75% RH, 1 month): 100%
- Dissolved at 30 min ([2]; Batch D, Initial): 100%
- dissolution at 30 minutes ([2]; potency study Lot B, after 4 weeks open at 40° C./75% RH): 100%
- release at 30 minutes ([2]; tablet Lots A and B with different sofosbuvir particle size): 101%
- Dissolved at 30 min (%) ([2]; tablets Batch C, 1 g desiccant, 25° C./60% RH, 3 months): 101%
- Dissolved at 30 min (%) ([2]; tablets Batch C, 1 g desiccant, 25° C./60% RH, 6 months): 99%
- Dissolved at 30 min (%) ([2]; tablets Batch C, 1 g desiccant, 30° C./75% RH, 3 months): 99%
- Dissolved at 30 min (%) ([2]; tablets Batch C, 1 g desiccant, 30° C./75% RH, 6 months): 99%
- Dissolved at 30 min (%) ([2]; tablets Batch C, 1 g desiccant, 40° C./75% RH, 1 month): 100%
- Dissolved at 30 min (%) ([2]; tablets Batch C, 1 g desiccant, 40° C./75% RH, 3 months): 100%
- Dissolved at 30 min (%) ([2]; tablets Batch C, 1 g desiccant, 40° C./75% RH, 6 months): 99%
- Dissolved at 30 min (%) ([2]; tablets Batch C, 1 g desiccant, Initial, time 0): 99%
- Dissolved at 30 min (%) ([2]; tablets from VEL SSD 7.0% water, VOX SSD 3.2% water, Initial, time 0): 100%
- total impurities/degradation products ([3]; Formulation G tablets, open conditions at 40° C./75% RH for 6 months): 0.0%
- Total Imp./Deg. ([3]; Lot A (14 ct), 25° C./60% RH Closed, 1 month): 0.0%
- Total Imp./Deg. ([3]; Lot A (14 ct), 25° C./60% RH Closed, 3 months): 0.0%
- Total Imp./Deg. ([3]; Lot A (14 ct), 25° C./60% RH Closed, 6 months): 0.0%
- Total Imp./Deg. ([3]; Lot A (14 ct), 40° C./75% RH Closed, 1 month): 0.0%
- Total Imp./Deg. ([3]; Lot A (14 ct), 40° C./75% RH Closed, 3 months): 0.0%
- Total Imp./Deg. ([3]; Lot A (14 ct), 40° C./75% RH Closed, 6 months): 0.0%
- Total Imp./Deg. ([3]; Lot A (14 ct), 40° C./75% RH Open, 1 month): 0.0%
- Total Imp./Deg. ([3]; Lot A (14 ct), 40° C./75% RH Open, 3 months): 0.0%
- Total Imp./Deg. ([3]; Lot A (14 ct), 40° C./75% RH Open, 6 months): 0.0%
- Total Imp./Deg. ([3]; Lot A (14 ct), Initial): 0.0%
- Total Imp./Deg. ([3]; Lot B (28 ct), 25° C./60% RH Closed, 1 month): 0.0%
- Total Imp./Deg. ([3]; Lot B (28 ct), 25° C./60% RH Closed, 3 months): 0.0%
- Total Imp./Deg. ([3]; Lot B (28 ct), 25° C./60% RH Closed, 6 months): 0.0%
- Total Imp./Deg. ([3]; Lot B (28 ct), 40° C./75% RH Closed, 1 month): 0.0%
- Total Imp./Deg. ([3]; Lot B (28 ct), 40° C./75% RH Closed, 3 months): 0.0%
- Total Imp./Deg. ([3]; Lot B (28 ct), 40° C./75% RH Closed, 6 months): 0.0%
- Total Imp./Deg. ([3]; Lot B (28 ct), Initial): 0.0%
- total impurities/degradation products ([3]; packaged Formulation G tablets, 40° C./75% RH and 25° C./60% RH for 6 months): 0.0%
- effect of food on plasma exposure [4]: does not substantially alter
- dissolution complete within [5]: ≤ 20 min
